Data: ChEMBL document CHEMBL1201861, “Genomics of Drug Sensitity in Cancer screening data, Wellcome Trust Sanger Institute”

Experiments:
[1] = test system: MKN-1; assay: cells; type: functional, cell-based, Homo sapiens; conditions: Homo sapiens, MKN-1;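 further: growth inhibition of human MKN1 cells, read out by a cell viability measurement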
Description: SANGER: Inhibition of human MKN1 cell growth in a cell viability assay.

[2] = test system: SW48; assay: cells; type: functional, cell-based, Homo sapiens; conditions: Homo sapiens, SW48;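 further: growth inhibition of SW48 cells, read out with a cell viability assay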
Description: SANGER: Inhibition of human SW48 cell growth in a cell viability assay.

[3] = test system: LAMA-84; assay: cells; type: functional, cell-based, Homo sapiens; conditions: Homo sapiens, LAMA-84;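 further: growth inhibition of LAMA-84 cells, read out with a cell viability assay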
Description: SANGER: Inhibition of human LAMA-84 cell growth in a cell viability assay.

[4] = test system: COLO-824; assay: cells; type: functional, cell-based, Homo sapiens; conditions: Homo sapiens, COLO-824
Description: SANGER: Inhibition of human COLO-824 cell growth in a cell viability assay.

[5] = test system: CAL-120; assay: cells; type: functional, cell-based, Homo sapiens; conditions: Homo sapiens, CAL-120
Description: SANGER: Inhibition of human CAL-120 cell growth in a cell viability assay.

[6] = test system: HCC38; assay: cells; type: functional, cell-based, Homo sapiens; conditions: Homo sapiens, HCC38;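 further: cell viability assay on the human HCC38 cell line, with IC50 marking the concentration that inhibits cell growth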
Description: SANGER: Inhibition of human HCC38 cell growth in a cell viability assay.

[7] = test system: MDA-MB-231; assay: cells; type: functional, cell-based, Homo sapiens; conditions: Homo sapiens, MDA-MB-231
Description: SANGER: Inhibition of human MDA-MB-231 cell growth in a cell viability assay.

[8] = test system: 647-V; assay: cells; type: functional, cell-based, Homo sapiens; conditions: Homo sapiens, 647-V;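 further: growth inhibition of 647-V cells, read out with a cell viability assay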
Description: SANGER: Inhibition of human 647-V cell growth in a cell viability assay.

[9] = test system: KYSE-180; assay: cells; type: functional, cell-based, Homo sapiens; conditions: Homo sapiens, KYSE-180;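 further: growth inhibition of KYSE-180 cells, read out with a cell viability assay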
Description: SANGER: Inhibition of human KYSE-180 cell growth in a cell viability assay.

[10] = test system: LU-165; assay: cells; type: functional, cell-based, Homo sapiens; conditions: Homo sapiens, LU-165
Description: SANGER: Inhibition of human LU-165 cell growth in a cell viability assay.

[11] = test system: MEL-HO; assay: cells; type: functional, cell-based, Homo sapiens; conditions: Homo sapiens, MEL-HO
Description: SANGER: Inhibition of human MEL-HO cell growth in a cell viability assay.

[12] = test system: VM-CUB-1; assay: cells; type: functional, cell-based, Homo sapiens; conditions: Homo sapiens, VM-CUB-1;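 further: cell viability assay measuring growth inhibition of the human VM-CUB-1 cell line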
Description: SANGER: Inhibition of human VM-CUB-1 cell growth in a cell viability assay.

[13] = test system: SNU-387; assay: cells; type: functional, cell-based, Homo sapiens; conditions: Homo sapiens, SNU-387
Description: SANGER: Inhibition of human SNU-387 cell growth in a cell viability assay.

[14] = test system: SF-295; assay: cells; type: functional, cell-based, Homo sapiens; conditions: Homo sapiens, SF-295;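 further: growth inhibition of SF-295 cells, read out with a cell viability assay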
Description: SANGER: Inhibition of human SF295 cell growth in a cell viability assay.

[15] = test system: EFO-27; assay: cells; type: functional, cell-based, Homo sapiens; conditions: Homo sapiens, EFO-27;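 further: growth inhibition of EFO-27 cells, read out with a cell viability assay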
Description: SANGER: Inhibition of human EFO-27 cell growth in a cell viability assay.

[16] = test system: G-401; assay: cells; type: functional, cell-based, Homo sapiens; conditions: Homo sapiens, G-401
Description: SANGER: Inhibition of human G-401 cell growth in a cell viability assay.

[17] = test system: NCI-H1755; assay: cells; type: functional, cell-based, Homo sapiens; conditions: Homo sapiens, NCI-H1755;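 further: cell viability readout used to measure growth inhibition of NCI-H1755 cells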
Description: SANGER: Inhibition of human NCI-H1755 cell growth in a cell viability assay.

[18] = test system: S-117; assay: cells; type: functional, cell-based, Homo sapiens; conditions: Homo sapiens, S-117
Description: SANGER: Inhibition of human S-117 cell growth in a cell viability assay.

[19] = test system: DMS-79; assay: cells; type: functional, cell-based, Homo sapiens; conditions: Homo sapiens, DMS-79
Description: SANGER: Inhibition of human DMS-79 cell growth in a cell viability assay.

[20] = test system: CP66-MEL; assay: cells; type: functional, cell-based, Homo sapiens; conditions: Homo sapiens, CP66-MEL;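 further: growth inhibition of CP66-MEL cells determined in a cell viability assay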
Description: SANGER: Inhibition of human CP66-MEL cell growth in a cell viability assay.

[21] = test system: HL-60; assay: cells; type: functional, cell-based, Homo sapiens; conditions: Homo sapiens, HL-60;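 further: growth inhibition of human HL-60 cells, read out with a cell viability assay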
Description: SANGER: Inhibition of human HL-60 cell growth in a cell viability assay.

[22] = test system: JEG-3; assay: cells; type: functional, cell-based, Homo sapiens; conditions: Homo sapiens, JEG-3;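 further: growth inhibition of human JEG-3 cells, read out with a cell viability assay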
Description: SANGER: Inhibition of human JEG-3 cell growth in a cell viability assay.

[23] = test system: LB996-RCC; assay: cells; type: functional, cell-based, Homo sapiens; conditions: Homo sapiens, LB996-RCC
Description: SANGER: Inhibition of human LB996-RCC cell growth in a cell viability assay.

[24] = test system: C2BBe1; assay: cells; type: functional, cell-based, Homo sapiens; conditions: Homo sapiens, C2BBe1;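 further: growth inhibition of C2BBe1 cells, read out through a viability assay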
Description: SANGER: Inhibition of human C2BBe1 cell growth in a cell viability assay.

[25] = test system: RPMI 8402; assay: SANGER: Inhibition of human RPMI-8402 cell growth in a cell viability assay.; type: functional, cell-based; conditions: Homo sapiens, RPMI 8402; read-out: IC50
[26] = test system: RD; assay: cells; type: functional, cell-based, Homo sapiens; conditions: Homo sapiens, RD
Description: SANGER: Inhibition of human RD cell growth in a cell viability assay.

[27] = test system: NCI-H520; assay: cells; type: functional, cell-based, Homo sapiens; conditions: Homo sapiens, NCI-H520;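 further: growth inhibition of NCI-H520 cells, measured by a cell viability assay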
Description: SANGER: Inhibition of human NCI-H520 cell growth in a cell viability assay.

[28] = test system: HOS; assay: cells; type: functional, cell-based, Homo sapiens; conditions: Homo sapiens, HOS
Description: SANGER: Inhibition of human HOS cell growth in a cell viability assay.

[29] = test system: HCC2218; assay: cells; type: functional, cell-based, Homo sapiens; conditions: Homo sapiens, HCC2218;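 further: cell viability assay read-out, with IC50 given as the concentration that inhibits growth of the cell line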
Description: SANGER: Inhibition of human HCC2218 cell growth in a cell viability assay.

[30] = test system: SH-4; assay: cells; type: functional, cell-based, Homo sapiens; conditions: Homo sapiens, SH-4;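 further: growth inhibition of SH-4 cells, read out with a cell viability assay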
Description: SANGER: Inhibition of human SH-4 cell growth in a cell viability assay.

[31] = test system: RO82-W-1; assay: cells; type: functional, cell-based, Homo sapiens; conditions: Homo sapiens, RO82-W-1;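 further: growth inhibition of human RO82-W-1 cells, measured with a cell viability assay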
Description: SANGER: Inhibition of human RO82-W-1 cell growth in a cell viability assay.

[32] = test system: MZ1-PC; assay: cells; type: functional, cell-based, Homo sapiens; conditions: Homo sapiens, MZ1-PC;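 further: cell viability assay measuring growth inhibition of human MZ1-PC cells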
Description: SANGER: Inhibition of human MZ1-PC cell growth in a cell viability assay.

[33] = test system: ES3; assay: cells; type: functional, cell-based, Homo sapiens; conditions: Homo sapiens, ES3;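 further: growth inhibition of ES3 cells, read out with a cell viability assay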
Description: SANGER: Inhibition of human ES3 cell growth in a cell viability assay.

[34] = test system: Ca-Ski; assay: cells; type: functional, cell-based, Homo sapiens; conditions: Homo sapiens, Ca-Ski;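 further: cell viability assay measuring inhibition of Ca-Ski cell growth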
Description: SANGER: Inhibition of human Ca-Ski cell growth in a cell viability assay.

[35] = test system: BHT-101; assay: cells; type: functional, cell-based, Homo sapiens; conditions: Homo sapiens, BHT-101
Description: SANGER: Inhibition of human BHT-101 cell growth in a cell viability assay.

[36] = test system: NCI-H1882; assay: cells; type: functional, cell-based, Homo sapiens; conditions: Homo sapiens, NCI-H1882;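 further: growth inhibition of the cell line, determined with a viability assay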
Description: SANGER: Inhibition of human NCI-H1882 cell growth in a cell viability assay.

[37] = test system: SNU-16; assay: cells; type: functional, cell-based, Homo sapiens; conditions: Homo sapiens, SNU-16;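 further: growth inhibition of human SNU-16 cells, determined with a cell viability readout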
Description: SANGER: Inhibition of human NCI-SNU-16 cell growth in a cell viability assay.

[38] = test system: ES1; assay: cells; type: functional, cell-based, Homo sapiens; conditions: Homo sapiens, ES1;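 further: growth inhibition of ES1 cells, read out with a cell viability assay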
Description: SANGER: Inhibition of human ES1 cell growth in a cell viability assay.

[39] = test system: PFSK-1; assay: cells; type: functional, cell-based, Homo sapiens; conditions: Homo sapiens, PFSK-1;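 further: cell viability assay measuring how strongly compounds suppress growth of human PFSK-1 cells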
Description: SANGER: Inhibition of human PFSK-1 cell growth in a cell viability assay.

[40] = test system: NCI-H1522; assay: cells; type: functional, cell-based, Homo sapiens; conditions: Homo sapiens, NCI-H1522;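 further: growth inhibition of NCI-H1522 cells, read out with a cell viability assay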
Description: SANGER: Inhibition of human NCI-H1522 cell growth in a cell viability assay.

[41] = test system: SNU-C1; assay: cells; type: functional, cell-based, Homo sapiens; conditions: Homo sapiens, SNU-C1;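 further: growth inhibition of SNU-C1 human cells, read out by a cell viability assay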
Description: SANGER: Inhibition of human SNU-C1 cell growth in a cell viability assay.

[42] = test system: NB69; assay: cells; type: functional, cell-based, Homo sapiens; conditions: Homo sapiens, NB69;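 further: growth inhibition of NB69 cells, determined by a cell viability assay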
Description: SANGER: Inhibition of human NB69 cell growth in a cell viability assay.

[43] = test system: RPMI-8226; assay: cells; type: functional, cell-based, Homo sapiens; conditions: Homo sapiens, RPMI-8226
Description: SANGER: Inhibition of human RPMI-8226 cell growth in a cell viability assay.

[44] = test system: NCI-H2087; assay: cells; type: functional, cell-based, Homo sapiens; conditions: Homo sapiens, NCI-H2087;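 further: growth inhibition determined with a cell viability readout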
Description: SANGER: Inhibition of human NCI-H2087 cell growth in a cell viability assay.

[45] = test system: NB1; assay: cells; type: functional, cell-based, Homo sapiens; conditions: Homo sapiens, NB1;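 further: reduction of NB1 cell proliferation, read out with a viability assay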
Description: SANGER: Inhibition of human NB1 cell growth in a cell viability assay.

[46] = test system: Lu-65; assay: cells; type: functional, cell-based, Homo sapiens; conditions: Homo sapiens, Lu-65;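 further: growth inhibition of Lu-65 cancer cells, read out by a cell viability assay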
Description: SANGER: Inhibition of human LU-65 cell growth in a cell viability assay.

[47] = test system: SW-620; assay: cells; type: functional, cell-based, Homo sapiens; conditions: Homo sapiens, SW-620;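 further: growth inhibition of human SW-620 cells, measured by a cell viability assay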
Description: SANGER: Inhibition of human SW620 cell growth in a cell viability assay.

[48] = test system: DU-4475; assay: cells; type: functional, cell-based, Homo sapiens; conditions: Homo sapiens, DU-4475
Description: SANGER: Inhibition of human DU-4475 cell growth in a cell viability assay.

[49] = test system: NB6; assay: cells; type: functional, cell-based, Homo sapiens; conditions: Homo sapiens, NB6
Description: SANGER: Inhibition of human NB6 cell growth in a cell viability assay.

SMILES: COc1cccc2c1C(=O)c1c(O)c3c(c(O)c1C2=O)C[C@@](O)(C(=O)CO)C[C@@H]3O[C@H]1C[C@H](N)[C@H](O)[C@H](C)O1 [DOXORUBICIN]
- IC50 [1]: 9.86 nM
- IC50 [2]: 49.7 nM
- IC50 [3]: 437 nM
- IC50 [4]: > 1020 nM
- IC50 [5]: 778 nM
- IC50 [6]: 42.5 nM
- IC50 [7]: > 1020 nM
- IC50 [8]: 18.8 nM
- IC50 [9]: 59.8 nM
- IC50 [10]: 639 nM
- IC50 [11]: 18.3 nM
- IC50 [12]: 75.4 nM
- IC50 [13]: 236 nM
- IC50 [14]: 49.1 nM
- IC50 [15]: 97.4 nM
- IC50 [16]: 30.2 nM
- IC50 [17]: 874 nM
- IC50 [18]: > 1020 nM
- IC50 [19]: > 1020 nM
- IC50 [20]: > 1020 nM
- IC50 [21]: 62.6 nM
- IC50 [22]: 95.1 nM
- IC50 [23]: 78.5 nM
- IC50 [24]: > 1020 nM
- IC50 [25]: 53.9 nM
- IC50 [26]: 180 nM
- IC50 [27]: 267 nM
- IC50 [28]: 45.3 nM
- IC50 [29]: 182 nM
- IC50 [30]: 92.1 nM
- IC50 [31]: > 1020 nM
- IC50 [32]: 23.8 nM
- IC50 [33]: 89.5 nM
- IC50 [34]: 44.8 nM
- IC50 [35]: 396 nM
- IC50 [36]: 215 nM
- IC50 [37]: > 1020 nM
- IC50 [38]: 13.7 nM
- IC50 [39]: 678 nM
- IC50 [40]: > 1020 nM
- IC50 [41]: > 1020 nM
- IC50 [42]: 79.2 nM
- IC50 [43]: 213 nM
- IC50 [44]: 49.4 nM
- IC50 [45]: 46 nM
- IC50 [46]: 346 nM
- IC50 [47]: 26.6 nM
- IC50 [48]: 12.1 nM
- IC50 [49]: > 1020 nM

SMILES: O=C(O)c1ccc(-c2c[nH]c3ncc(-c4ccccc4)cc23)cc1C1CCCC1 [GSK-650394]
- IC50 [1]: 9190 nM
- IC50 [2]: > 16000 nM
- IC50 [3]: 10200 nM
- IC50 [4]: > 16000 nM
- IC50 [5]: > 16000 nM
- IC50 [6]: > 16000 nM
- IC50 [7]: > 16000 nM
- IC50 [8]: > 16000 nM
- IC50 [9]: 2060 nM
- IC50 [10]: > 16000 nM
- IC50 [11]: > 16000 nM
- IC50 [12]: > 16000 nM
- IC50 [13]: > 16000 nM
- IC50 [14]: 7600 nM
- IC50 [15]: 15400 nM
- IC50 [16]: > 16000 nM
- IC50 [17]: > 16000 nM
- IC50 [18]: > 16000 nM
- IC50 [19]: > 16000 nM
- IC50 [20]: > 16000 nM
- IC50 [21]: > 16000 nM
- IC50 [22]: > 16000 nM
- IC50 [23]: > 16000 nM
- IC50 [24]: > 16000 nM
- IC50 [25]: > 16000 nM
- IC50 [26]: > 16000 nM
- IC50 [27]: > 16000 nM
- IC50 [28]: 1970 nM
- IC50 [29]: > 16000 nM
- IC50 [30]: > 16000 nM
- IC50 [31]: > 16000 nM
- IC50 [32]: > 16000 nM
- IC50 [33]: > 16000 nM
- IC50 [34]: > 16000 nM
- IC50 [35]: > 16000 nM
- IC50 [36]: > 16000 nM
- IC50 [37]: > 16000 nM
- IC50 [38]: > 16000 nM
- IC50 [39]: > 16000 nM
- IC50 [40]: > 16000 nM
- IC50 [41]: > 16000 nM
- IC50 [42]: > 16000 nM
- IC50 [43]: > 16000 nM
- IC50 [44]: 13400 nM
- IC50 [45]: > 16000 nM
- IC50 [46]: > 16000 nM
- IC50 [47]: 1930 nM
- IC50 [48]: > 16000 nM
- IC50 [49]: > 16000 nM

SMILES: CCC/C=C/C=C/C(=O)O[C@H]1/C(=C/C(=O)OC)C[C@H]2C[C@H]([C@@H](C)O)OC(=O)C[C@H](O)C[C@@H]3C[C@H](OC(C)=O)C(C)(C)[C@](O)(C[C@@H]4C/C(=C/C(=O)OC)C[C@H](/C=C/C(C)(C)[C@]1(O)O2)O4)O3 [BRYOSTATIN 1]
- IC50 [1]: > 8 nM
- IC50 [2]: > 8 nM
- IC50 [3]: > 8 nM
- IC50 [4]: > 8 nM
- IC50 [5]: > 8 nM
- IC50 [6]: > 8 nM
- IC50 [7]: > 8 nM
- IC50 [8]: > 8 nM
- IC50 [9]: > 8 nM
- IC50 [10]: > 8 nM
- IC50 [11]: > 8 nM
- IC50 [12]: > 8 nM
- IC50 [13]: > 8 nM
- IC50 [14]: > 8 nM
- IC50 [15]: > 8 nM
- IC50 [16]: > 8 nM
- IC50 [17]: > 8 nM
- IC50 [18]: 5.92 nM
- IC50 [19]: > 8 nM
- IC50 [20]: > 8 nM
- IC50 [21]: > 8 nM
- IC50 [22]: > 8 nM
- IC50 [23]: > 8 nM
- IC50 [24]: > 8 nM
- IC50 [25]: > 8 nM
- IC50 [26]: > 8 nM
- IC50 [27]: > 8 nM
- IC50 [28]: > 8 nM
- IC50 [29]: > 8 nM
- IC50 [30]: > 8 nM
- IC50 [31]: > 8 nM
- IC50 [32]: > 8 nM
- IC50 [33]: > 8 nM
- IC50 [34]: > 8 nM
- IC50 [35]: > 8 nM
- IC50 [36]: > 8 nM
- IC50 [37]: > 8 nM
- IC50 [38]: > 8 nM
- IC50 [39]: > 8 nM
- IC50 [40]: > 8 nM
- IC50 [41]: > 8 nM
- IC50 [42]: > 8 nM
- IC50 [43]: > 8 nM
- IC50 [44]: > 8 nM
- IC50 [45]: > 8 nM
- IC50 [46]: > 8 nM
- IC50 [47]: > 8 nM
- IC50 [48]: > 8 nM
- IC50 [49]: > 8 nM
